Data: ChEMBL document CHEMBL3351941, “Synthesis and antiprotozoal activity of oligomethylene- and p-phenylene-bis(methylene)-linked bis(+)-huprines” (Bioorg Med Chem Lett, 2014)

Columns and labels:
L6 = test: Cytotoxicity against rat L6 cells after 6 days by resazurin assay; format: cell-based; conditions: L6, 144 h
Plasmodium falciparum = test: Antiplamodial activity against chloroquine-resistant bloodstream forms of Plasmodium falciparum K1 infected in human A+ erythrocytes assessed as growth inhibition after 48 hrs by spectrophotometry; format: functional, organism-based; conditions: K1, 48 h
[1] = Selectivity index, ratio of IC50 for rat L6 cells to IC50 for bloodstream forms of Trypanosoma brucei 221; format: toxicity, cell-based; conditions: L6 cells versus bloodstream forms of Trypanosoma brucei 221, read-out: Ratio IC50
Trypanosoma brucei = test: Trypanocidal activity against bloodstream forms of Trypanosoma brucei 221 assessed as growth inhibition after 48 hrs by resazurin assay; format: functional, organism-based; conditions: Trypanosoma brucei, 221, 48 h
[2] = Effective permeability of the compound by PAMPA assay; format: ADME; conditions: read-out: Peff
Acetylcholinesterase = Acetylcholinesterase (Homo sapiens, UniProt P22303); test: Inhibition of human recombinant AChE using acetylthiocholine iodide as substrate preincubated for 20 mins by Ellman method
Acetylcholinesterase, sequence (P22303 whole entry): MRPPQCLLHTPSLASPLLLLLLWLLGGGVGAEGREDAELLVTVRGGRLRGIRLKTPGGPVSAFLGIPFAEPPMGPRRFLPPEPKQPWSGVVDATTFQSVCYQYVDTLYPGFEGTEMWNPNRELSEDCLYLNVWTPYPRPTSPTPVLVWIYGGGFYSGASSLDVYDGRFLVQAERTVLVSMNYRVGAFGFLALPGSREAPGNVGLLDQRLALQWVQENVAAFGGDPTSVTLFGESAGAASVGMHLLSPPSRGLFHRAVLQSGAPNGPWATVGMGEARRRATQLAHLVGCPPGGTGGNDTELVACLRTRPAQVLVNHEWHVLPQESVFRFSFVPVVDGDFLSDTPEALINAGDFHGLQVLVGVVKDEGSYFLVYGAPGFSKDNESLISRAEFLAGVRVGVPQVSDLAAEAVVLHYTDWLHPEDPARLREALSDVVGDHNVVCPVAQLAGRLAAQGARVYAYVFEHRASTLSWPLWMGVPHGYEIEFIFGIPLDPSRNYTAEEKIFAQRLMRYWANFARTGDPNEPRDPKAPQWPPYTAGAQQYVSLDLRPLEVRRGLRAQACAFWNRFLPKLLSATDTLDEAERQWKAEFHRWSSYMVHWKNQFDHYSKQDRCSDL

Work on CC1=C[C@H]2Cc3nc4cc(Cl)ccc4c(NCCCCCCNc4c5c(nc6cc(Cl)ccc46)C[C@@H]4C=C(C)C[C@H]5C4)c3[C@@H](C1)C2 yielded an IC50 (L6) of 1610 nM, an IC50 (Plasmodium falciparum) of over 6000 nM and a selectivity ratio [1] of 1.8. For the same molecule, the IC50 (Trypanosoma brucei) was 890 nM, the IC90 (Trypanosoma brucei) was 1090 nM and the Papp [2] was 11.1 ×10⁻⁶ cm/s. It also gave an IC50 (Acetylcholinesterase) of 192 nM.

For CC1=C[C@H]2Cc3nc4cc(Cl)ccc4c(NCCCCCCCCNc4c5c(nc6cc(Cl)ccc46)C[C@@H]4C=C(C)C[C@H]5C4)c3[C@@H](C1)C2, the IC50 (L6) was 4920 nM, the IC50 (Plasmodium falciparum) was over 6000 nM and the selectivity ratio [1] was 9.5. The IC50 (Trypanosoma brucei) was 520 nM, the IC90 (Trypanosoma brucei) was 740 nM and the Papp [2] was 13.9 ×10⁻⁶ cm/s. It also gave an IC50 (Acetylcholinesterase) of 72.5 nM.

CC1=C[C@H]2Cc3nc4cc(Cl)ccc4c(NCCCCCCCCCCNc4c5c(nc6cc(Cl)ccc46)C[C@@H]4C=C(C)C[C@H]5C4)c3[C@@H](C1)C2 gave an IC50 (L6) of 7710 nM, an IC50 (Plasmodium falciparum) of over 6000 nM and a selectivity ratio [1] of 15.4. For the same molecule, the IC50 (Trypanosoma brucei) was 500 nM, the IC90 (Trypanosoma brucei) was 730 nM and the Papp [2] was 8.7 ×10⁻⁶ cm/s. The IC50 (Acetylcholinesterase) was 17.5 nM.

With CC1=C[C@H]2Cc3nc4cc(Cl)ccc4c(NCCCCCCCCCCCCNc4c5c(nc6cc(Cl)ccc46)C[C@@H]4C=C(C)C[C@H]5C4)c3[C@@H](C1)C2 the IC50 (L6) was 28500 nM, the IC50 (Plasmodium falciparum) was over 6000 nM and the selectivity ratio [1] was 37.5. For the same molecule, the IC50 (Trypanosoma brucei) was 760 nM, the IC90 (Trypanosoma brucei) was 990 nM and the Papp [2] was 17.4 ×10⁻⁶ cm/s. The IC50 (Acetylcholinesterase) was 431 nM.

In the case of CC1=C[C@H]2Cc3nc4cc(Cl)ccc4c(NCc4ccc(CNc5c6c(nc7cc(Cl)ccc57)C[C@@H]5C=C(C)C[C@H]6C5)cc4)c3[C@@H](C1)C2, the IC50 (L6) is reported as 16100 nM, the IC50 (Plasmodium falciparum) is reported as over 6000 nM and the selectivity ratio [1] is reported as 28.2. For the same molecule, the IC50 (Trypanosoma brucei) was 570 nM, the IC90 (Trypanosoma brucei) was 750 nM and the Papp [2] was 8.3 ×10⁻⁶ cm/s.

In the case of C[C@@H]1CC[C@H]2[C@@H](C)C(=O)O[C@@H]3O[C@@]4(C)CC[C@@H]1[C@]32OO4 [ARTEMISININ], the IC50 (Plasmodium falciparum) is reported as 91 nM.

CC1=CC2Cc3nc4cc(Cl)ccc4c(N)c3C(C1)C2 (stereo unspecified) [HUPRINE Y] showed an IC50 (Plasmodium falciparum) of over 10000 nM.
